Results published in patent US20120172228A1, “ALCOHOL ALKOXYLATES AS ADJUVANTS FOR AGROCHEMICAL FORMULATIONS” (SYNGENTA CROP PROTECTION, LLC, priority 2009, published 2012).

What was measured:
Assay type in all cases: in vivo
setaria viridis (SETVI) [1] = assay: Adjuvant with herbicide pinoxaden on SETVI; details: pinoxaden 7.5 or 15 g/ha; butylene oxide adjuvants 0.2%, TEHP 0.5% v/v; 14 and 21 days
Protocol: (§1) In this example Sample 13 from Table 1 was compared to the oil adjuvant blend Turbocharge™. The herbicide fomesafen was applied to the weed species xanthium strumarium (XANST), setaria viridis (SETVI), abutilon theophrasti (ABUTH), and chenopodium album (CHEAL) at rates of 60 or 120 grams per hectare, using a laboratory track sprayer. Each experiment was replicated four times and the percentage damage to the weeds was assessed visually at time periods of 7, 14 and 21 days after application. Each adjuvant was applied at a rate of 0.5% of the volume of the spray water. Four effects were evaluated: pesticide rate (2 levels), adjuvant type (two levels), weed species (four levels) and days after application (three levels). […] The effect of each adjuvant was pulled out from the model and the least significant differences evaluated using a Student's t method. […]
In this example the responses of the adjuvants 13, 17, 19, 21, 22 and 23 were measured at an application rate of 0.2% of the volume of the spray solution used. […] In each case the experiments were replicated four times and the percentage damage to the weeds was assessed visually at time periods of 14 and 21 days after application.
In this example the response of butylene oxide sample 27 of Table 1 was measured at an application rate of 0.2% of the volume of the spray solution used. […]

setaria viridis (SETVI) [2] = assay: Adjuvant with herbicide nicosulfuron on SETVI; details: nicosulfuron 30 or 60 g/ha; adjuvants 0.2% of spray water; 14 and 21 days after application
Protocol: as §1
(§2) In this example the butylene oxide adjuvant Sample 13 of Table 1 was compared to the commercial oil adjuvant blend Atplus™411F. […] Each experiment was replicated four times and the percentage damage to the weeds was assessed visually at time periods of 14 and 21 days after application. […]
(§3) In this example the responses of the butylene oxide adjuvants 13, 17, 19, 21, 22 and 23 of Table 1 were measured at an application rate of 0.2% of the volume of the spray solution used. […]

[3] = tested on: abutilon theophrasti (ABUTH); assay: Adjuvant with herbicide nicosulfuron on ABUTH; details: nicosulfuron 30 or 60 g/ha; adjuvants 0.2% of spray water; 14 and 21 days after application
Protocol: as §1, §2, §3

## CCCCC(CC)COP(=O)(OCC(CC)CCCC)OCC(CC)CCCC (stereo not drawn) [TEHP, tris 2-ethylhexyl phosphate]
Setaria viridis (SETVI) [1]
  mean efficacy (percentage damage to the weeds), SETVI: 77.5; ABC %
Setaria viridis (SETVI) [2]
  mean efficacy (percentage damage to the weeds), SETVI: 77.08; A %
[3]
  mean efficacy (percentage damage to the weeds), ABUTH: 17.92; B %
